Test results reported in paper PMC11286609, “In vitro and in vivo analyses of eFAP: a novel FAP-targeting small molecule for radionuclide theranostics and other oncological interventions” (EJNMMI Radiopharmacy and Chemistry, 2024).

Key:
muFAP = target: T1, muFAP (Mus musculus, UniProt P97321); experiment: Recombinant enzymatic inhibition assay, muFAP (Z-Gly-Pro-AMC); assay type: biochemical, murine; settings: n = 3, picture: nM ± 95% CI
T1 sequence (P97321 1-761): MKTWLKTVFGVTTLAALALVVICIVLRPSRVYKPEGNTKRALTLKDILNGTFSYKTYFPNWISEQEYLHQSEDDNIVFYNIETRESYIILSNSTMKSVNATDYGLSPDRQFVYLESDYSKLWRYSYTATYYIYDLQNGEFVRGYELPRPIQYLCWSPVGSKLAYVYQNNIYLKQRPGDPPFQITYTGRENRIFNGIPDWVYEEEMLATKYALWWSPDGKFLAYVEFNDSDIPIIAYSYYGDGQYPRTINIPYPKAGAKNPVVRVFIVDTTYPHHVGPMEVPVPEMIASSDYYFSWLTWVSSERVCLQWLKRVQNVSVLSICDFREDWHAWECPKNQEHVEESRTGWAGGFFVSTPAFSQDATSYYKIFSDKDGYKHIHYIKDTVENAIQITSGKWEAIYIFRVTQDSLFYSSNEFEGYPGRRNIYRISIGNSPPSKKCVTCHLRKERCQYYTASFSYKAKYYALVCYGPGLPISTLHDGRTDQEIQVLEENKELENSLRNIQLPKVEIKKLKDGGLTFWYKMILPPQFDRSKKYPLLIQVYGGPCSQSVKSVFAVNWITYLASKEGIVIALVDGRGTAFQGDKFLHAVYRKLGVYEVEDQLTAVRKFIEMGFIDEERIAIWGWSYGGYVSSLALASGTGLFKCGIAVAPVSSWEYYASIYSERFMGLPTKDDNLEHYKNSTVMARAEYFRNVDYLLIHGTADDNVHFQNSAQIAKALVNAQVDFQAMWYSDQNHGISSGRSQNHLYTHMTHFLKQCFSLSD
Procedure: (§1) All enzymatic assays were performed in black 384-well plates, and enzymatic activity was measured on a microplate reader, monitoring the fluorescence at λEX 350 nm/λEM 485 nm. […] Val-boroPro (10^− 4 M) and assay buffer served as a positive and negative control, respectively. To measure inhibition of PREP, 50 µL of the reaction mixture containing 1 µM Z-Gly-Pro-AMC and 10 ng PREP (R&D Systems; Minneapolis, MN, USA) were used. The enzymatic assay of DPP4 contained substrate (100 µM), DPP4 (Abcam; Cambridge, UK) (10 nM), assay buffer, and increasing concentrations of the inhibitors (10^− 10 M to 10^− 4 M). Sitagliptin (10^− 4 M) and assay buffer were used as a positive and negative control, respectively. H-Gly-Pro-AMC (100 µM) in assay buffer was used as a baseline control. The plates were analyzed in a Hidex Sense Microplate reader (Hidex; Turku, Finland) at 37 °C under dark conditions for 1 h (huFAP), 2 h (muFAP), or 30 min (PREP, DPP4). For all assays, the components were kept on ice before plating.
(§2) All statistical analyses were performed with GraphPad Prism version 9.0 (San Diego, California USA). All IC50 values were determined using a non-linear regression Log(inhibitor) vs. response analysis with variable slope (four parameters). For the in vivo results outliers were identified by a ROUT test (Q = 1%) and excluded. Next, a two-tailed student’s t-test was performed (*p < 0.05, **p < 0.01, ***p < 0.001). All experiments were performed in triplicate and repeated at least three times.

[1] = target: T2, prolyl oligopeptidase (PREP) (Homo sapiens, UniProt P48147); experiment: Enzymatic inhibition assay, PREP; assay type: biochemical; settings: for IC50: recombinant PREP, n = 3, picture: nM ± 95% CI; for SI PREP/huFAP: selectivity index, IC50 PREP / IC50 huFAP
T2 construct: purchased R&D Systems
T2 sequence (P48147 1-710): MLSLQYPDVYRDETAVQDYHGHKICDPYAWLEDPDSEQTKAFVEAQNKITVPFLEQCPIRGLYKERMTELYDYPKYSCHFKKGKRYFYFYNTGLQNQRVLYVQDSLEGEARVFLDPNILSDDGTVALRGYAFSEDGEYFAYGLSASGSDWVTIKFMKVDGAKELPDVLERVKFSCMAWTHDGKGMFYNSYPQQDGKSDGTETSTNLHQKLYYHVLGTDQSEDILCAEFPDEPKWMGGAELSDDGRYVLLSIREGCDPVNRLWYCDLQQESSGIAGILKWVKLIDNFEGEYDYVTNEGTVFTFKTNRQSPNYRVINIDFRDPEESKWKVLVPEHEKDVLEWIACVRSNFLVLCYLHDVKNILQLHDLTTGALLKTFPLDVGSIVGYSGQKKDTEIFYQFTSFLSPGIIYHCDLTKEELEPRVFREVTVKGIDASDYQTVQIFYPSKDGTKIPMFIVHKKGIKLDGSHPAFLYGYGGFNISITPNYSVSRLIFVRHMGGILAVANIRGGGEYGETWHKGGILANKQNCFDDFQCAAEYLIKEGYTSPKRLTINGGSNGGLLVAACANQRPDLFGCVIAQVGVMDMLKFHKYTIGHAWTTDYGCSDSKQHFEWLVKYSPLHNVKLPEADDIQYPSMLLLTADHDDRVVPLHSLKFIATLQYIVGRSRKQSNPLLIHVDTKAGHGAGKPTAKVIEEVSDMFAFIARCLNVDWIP
Procedure: as §1, §2

huFAP = target: T3, huFAP (Homo sapiens, UniProt Q12884); experiment: Recombinant enzymatic inhibition assay, huFAP (Z-Gly-Pro-AMC); assay type: biochemical; settings: n = 3, picture: nM ± 95% CI
T3 sequence (Q12884 1-760): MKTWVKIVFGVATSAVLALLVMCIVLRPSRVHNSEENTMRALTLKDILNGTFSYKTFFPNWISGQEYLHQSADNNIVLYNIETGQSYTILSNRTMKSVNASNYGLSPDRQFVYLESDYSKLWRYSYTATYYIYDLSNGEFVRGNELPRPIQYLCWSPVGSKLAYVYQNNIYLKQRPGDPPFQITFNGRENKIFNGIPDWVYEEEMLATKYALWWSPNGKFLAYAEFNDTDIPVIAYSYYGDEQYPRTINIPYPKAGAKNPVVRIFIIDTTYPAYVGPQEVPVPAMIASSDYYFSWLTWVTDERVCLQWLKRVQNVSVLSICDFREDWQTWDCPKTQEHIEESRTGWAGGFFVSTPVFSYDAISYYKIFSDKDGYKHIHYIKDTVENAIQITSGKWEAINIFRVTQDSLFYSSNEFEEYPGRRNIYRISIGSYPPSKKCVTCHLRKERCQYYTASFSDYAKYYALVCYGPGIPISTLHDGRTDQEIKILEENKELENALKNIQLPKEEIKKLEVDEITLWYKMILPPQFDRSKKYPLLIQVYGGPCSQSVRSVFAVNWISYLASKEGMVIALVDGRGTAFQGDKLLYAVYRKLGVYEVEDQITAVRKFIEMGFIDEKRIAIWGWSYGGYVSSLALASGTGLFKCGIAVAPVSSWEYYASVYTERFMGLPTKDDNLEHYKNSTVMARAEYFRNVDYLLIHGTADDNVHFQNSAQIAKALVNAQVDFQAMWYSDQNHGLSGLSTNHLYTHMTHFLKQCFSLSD
Procedure: as §1, §2

IC50 (muFAP)	IC50 [1]	IC50 (huFAP)	SI PREP/huFAP [1]	Structure (SMILES)
1.55 ± 1.2 nM	3480 ± 172 nM	3.87 ± 2.7 nM		CN(CCCN1CCN(C(=O)CN2CCN(CC(=O)O)CCN(CC(=O)O)CCN(CC(=O)O)CC2)CC1)c1ccc2nccc(C(=O)NCC(=O)N3CC(F)(F)C[C@H]3C#N)c2c1 [FAPI-46, reference compound]
4.56 ± 0.2 nM	475 ± 104 nM	4.23 ± 0.5 nM	112.3	CN1/C(=C/C=C/C=C/C2=[N+](CCCCCC(=O)NCCCOc3cccc4c(C(=O)NCC(=O)N5CC(F)(F)C[C@H]5C#N)ccnc34)c3ccc(S(=O)(=O)[O-])cc3C2(C)C)C(C)(C)c2cc(S(=O)(=O)O)ccc21 [eFAP-7, 1-(6-((3-((4-((2-((S)-2-cyano-4,4-difluoropyrrolidin-1-yl)-2-oxoethyl)carbamoyl)quinolin-8-yl)oxy)propyl)amino)-6-oxohexyl)-3,3-dimethyl-5-sulfo-2-((1E,3E)-5-((E)-1,3,3-trimethyl-5-sulfoindolin-2-ylidene)penta-1,3-dien-1-yl)-3H-indol-1-ium]
0.58 ± 0.02 nM	161 ± 53.6 nM	1.16 ± 0.04 nM	138.6	N#C[C@@H]1CC(F)(F)CN1C(=O)CNC(=O)c1ccnc2c(OCCCNC(=O)CN3CCN(CC(=O)O)CCN(CC(=O)O)CCN(CC(=O)O)CC3)cccc12 [eFAP-6, (S)-2,2',2''-(10-(2-((3-((4-((2-(2-cyano-4,4-difluoropyrrolidin-1-yl)-2-oxoethyl)carbamoyl)quinolin-8-yl)oxy)propyl)amino)-2-oxoethyl)-1,4,7,10-tetraazacyclododecane-1,4,7-triyl)triacetic acid]
